Results as given in US20100087459A1, “FORMS OF LAPATINIB COMPOUNDS AND PROCESSES FOR THE PREPARATION THEREOF” (priority 2008, published 2010).

Test: stability of crystalline Form M1 in commonly used solvents and at high temperature
Assay type: physicochemical
Settings: solvents used for production and especially for formulation of the pharmaceutical product

## Lapatinib monotosylate [Form M1]
  stability in commonly used solvents: high stability
